Patent publication US8563036B2, “Pharmaceutical compositions comprising Brivaracetam” (UCB Pharma, S.A., priority 2009, dated 2013)
≈ marks a conversion by molar mass, not a printed value.

How the values were obtained:
[1] = test system: Genetically sound-sensitive male mice; assay: Audiogenic seizures in mice; type: in vivo; settings: audiogenic seizure-susceptible mice, i.p.
From the text: Audiogenic seizures in mice: Genetically sound-sensitive male mice (16-28 g; n=10 per group), responding with wild running, clonic and tonic convulsions to an acoustic stimulation, were used. Audiogenic seizures were induced by an acoustic stimulus (90 dB, 10-20 kHz) applied for 30 s.

mice [2] = assay: Chemically induced seizures in mice (pentylenetetrazol); type: in vivo; settings: i.p. 30 min before seizure induction; higher ED50 values than audiogenic model
Protocol: The dose was selected based on dose-effect curves in saline-treated animals as the convulsive dose inducing clonic convulsions of all four extremities in 97% of the animals. Immediately after administration of the chemoconvulsant, the mice were placed individually in small plastic cages (25 13 8 cm) and observed for the presence of clonic convulsions in all four extremities, for 60 min. The occurrence of tonic convulsions (hindlimb extension) and mortality was also recorded during this interval.

rat hippocampal slices [3] = assay: Epileptiform responses in hippocampal slices (field potentials in CA3 area); type: cell-based, Sprague-Dawley rats; design: effect on rate of spontaneous field bursting: dose or concentration left out as unconfirmed; settings: for effect on rate of spontaneous field bursting: HKLCF; for effect on epileptiform responses (evoked PS1 amplitude, repetitive PSs): HKLCF perfusion (K+ 7.5 mM; Ca2+ 0.5 mM), fimbrial stimulation
Protocol: The effect of brivaracetam on epileptiform responses induced by high-K+/low-Ca2+ concentrations or by bicuculline was examined in transverse hippocampal slices prepared from Sprague-Dawley rats according to previously reported standard procedures. The epileptiform responses were induced by passing from a normal perfusion of artificial cerebrospinal fluid (ACSF) (K+3 mM; Ca2+2.4 mM) to either high-K+/low-Ca2+ fluid (HKLCF) (K+7.5 mM; Ca2+0.5 mM) or to […] bicuculline methiodide (BMI)-containing ACSF.
Extracellular field potentials (FPs) were recorded in the CA3 area of the slices with 2 M NaCl-filled glass microelectrodes. The evoked FPs were recorded at 10-min intervals in response to fimbrial stimulation with constant current rectangular pulses that elicit a single population spike (PS) of 50-75% of the maximal amplitude when the slice is in ACSF. In the HKLCF model, 2 min of spontaneous activity were also recorded, in the middle of each 10-min interval between the recordings of evoked responses.
Either brivaracetam or levetiracetam was added to the bathing fluid of the slices 20 min before shifting from ACSF to either HKLCF or […] BMI-containing ACSF, and was kept in the perfusion fluid throughout the experiment.

[4] = Water solubility of the active ingredient
GAERS rats = assay: Spontaneous SWDs in GAERS rats; type: in vivo
[5] = test system: fully amygdala-kindled rats; assay: Fully amygdala-kindled rats; type: in vivo; settings: for dose significantly reducing after-discharge duration: highest dose tested
mice [6] = assay: Corneal kindling of mice; type: in vivo
mice [7] = assay: Maximal electroshock in mice; type: in vivo; settings: i.p. 30 min before seizure induction; higher ED50 values than audiogenic model
rat hippocampal slices [8] = settings: background statement; cited from earlier work

Compound	protection against clonic convulsions [1]	protection against clonic convulsions induced by pentylenetetrazol (mice [2])	effect on rate of spontaneous field bursting (rat hippocampal slices [3])	effect on epileptiform responses (evoked PS1 amplitude, repetitive PSs) (rat hippocampal slices [3])	BCS class (BCS classification)	solubility [4] [mg/mL]	dose from which spontaneous SWDs were significantly suppressed (GAERS rats) [mg/kg]	dose giving complete inhibition of spontaneous SWDs (GAERS rats; highest dose tested) [mg/kg]	dose from which significant suppression in motor-seizure severity was induced [5] [mg/kg]	dose significantly reducing after-discharge duration [5] [mg/kg]	incidence of generalized motor seizures after termination of treatment (mice [6]; continued corneal stimulations, group previously treated with the highest dose)	incidence of generalized motor seizures (mice [6]; pretreatment during corneal kindling)	protection against tonic hindlimb extension induced by maximal electroshock (mice [7])	effect on epileptiform responses induced by high-K+/low-Ca2+ and by bicuculline (rat hippocampal slices [8])
CCC[C@@H]1CC(=O)N([C@@H](CC)C(N)=O)C1 [Brivaracetam, (2S)-2-[(4R)-2-oxo-4-propyl-pyrrolidin-1-yl]butanamide]	protected against the expression of clonic convulsions	protected against clonic convulsions	reduced the rate of this spontaneous bursting	reduced these epileptiform responses	BCS I	~700 (≈ 3300 mM)	2.1	67.9	21.2	212.3	persistent reduction in the incidence of generalized motor seizures	significant reduction in the incidence of generalized motor seizures	protected	–
CC[C@@H](C(N)=O)N1CCCC1=O [Levetiracetam]	protected against the expression of clonic convulsions	–	not	reduced these epileptiform responses	–	–	–	–	170	> 1700	–	–	–	reduces epileptiform responses
